Patent US7795288B2, “Thiazole and pyrazole derivatives as Flt-3 kinase inhibitors” (Novartis AG, priority 2003, dated 2010)

Target: T1, cytoplasmic kinase domain of human Flt-3 (GST-Flt-3) (Homo sapiens, UniProt P36888)
T1 construct: expressing the amino acid region amino acids 563-993 of the cytoplasmic kinase domain of human Flt-3; made in house; host or cells: Sf9 insect cells (baculovirus, pFbacG01 donor vector)
T1 sequence (P36888 563-993): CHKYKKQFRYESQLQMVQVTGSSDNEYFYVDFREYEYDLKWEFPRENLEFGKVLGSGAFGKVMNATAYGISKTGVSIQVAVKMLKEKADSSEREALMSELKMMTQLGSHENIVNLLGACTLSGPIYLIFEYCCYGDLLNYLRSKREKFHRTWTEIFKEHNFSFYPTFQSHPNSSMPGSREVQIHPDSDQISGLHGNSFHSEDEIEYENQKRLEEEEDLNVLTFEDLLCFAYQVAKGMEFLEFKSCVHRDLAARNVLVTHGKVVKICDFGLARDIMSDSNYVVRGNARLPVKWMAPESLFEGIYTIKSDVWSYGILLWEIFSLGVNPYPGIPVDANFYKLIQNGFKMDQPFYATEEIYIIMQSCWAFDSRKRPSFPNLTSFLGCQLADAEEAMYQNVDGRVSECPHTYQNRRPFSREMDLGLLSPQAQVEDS
Assay: Inhibition of the protein tyrosine kinase activity of Flt-3 (GST-Flt-3, 33P incorporation into poly(Glu, Tyr))
Assay type: biochemical
Conditions: purified GST-Flt-3, 8.0 μM ATP, poly(Glu, Tyr) 4:1, 20 min at ambient temperature
From the text: The baculovirus donor vector pFbacG01 (GIBCO) is used to generate a recombinant baculovirus expressing the amino acid region amino acids 563-993 of the cytoplasmic kinase domain of human Flt-3. The coding sequence for the cytoplasmic domain of Flt-3 is amplified by PCR from human c-DNA libraries (Clontech). The amplified DNA fragments and the pFbacG01 vector are made compatible for ligation by digestion with BamH1 and HindIII. Ligation of these DNA fragments results in the baculovirus donor plasmid Flt-3 (1.1). The production of the viruses, the expression of proteins in Sf9 cells and the purification of the GST-fused proteins are performed as follows: Production of virus: Transfer vector (pFbacG01-Flt-3) containing the Flt-3 kinase domain is transfected into the DH10Bac cell line (GIBCO) and the transfected cells are plated on selective agar plates. Colonies without insertion of the fusion sequence into the viral genome (carried by the bacteria) are blue. Single white colonies are picked and viral DNA (bacmid) is isolated from the bacteria by standard plasmid purification procedures. Sf9 or Sf21 cells (American Type Culture Collection) are then transfected in flasks with the viral DNA using Cellfectin reagent. Protein expression in Sf9 cells: Virus containing media is collected from the transfected cell culture and used for infection to increase its titre. Virus containing media obtained after two rounds of infection is used for large-scale protein expression. For large-scale protein expression 100 cm^2 round tissue culture plates are seeded with 5×10^7 cells/plate and infected with 1 mL of virus-containing media (approx. 5 MOIs). After 3 days the cells are scraped off the plate and centrifuged at 500 rpm for 5 min. Cell pellets from 10-20, 100 cm^2 plates are resuspended in 50 mL of ice-cold lysis buffer (25 mM Tris-HCl, pH 7.5, 2 mM EDTA, 1% NP-40, 1 mM DTT, 1 mM PMSF). The cells are stirred on ice for 15 min and then centrifuged at 5000 rpms for 20 min. Purification of GST-tagged proteins: The centrifuged cell lysate is loaded onto a 2 mL glutathione-sepharose column (Pharmacia) and washed three times with 10 mL of 25 mM Tris-HCl, pH 7.5, 2 mM EDTA, 1 mM DTT, 200 mM NaCl. The GST-tagged protein is then eluted by 10 applications (1 mL each) of 25 mM Tris-HCl, pH 7.5, 10 mM reduced-glutathione, 100 mM NaCl, 1 mM DTT, 10% Glycerol and stored at −70° C. Measurement of enzyme activity: Tyrosine protein kinase assays with purified GST-Flt-3 are carried out in a final volume of 30 μL containing 200-1800 ng of enzyme protein (depending on the specific activity), 20 mM Tris-HCl, pH 7.6, 3 mM MnCl2, 3 mM MgCl2, 1 mM DTT, 10 μM Na3VO4, 3 μg/mL poly(Glu, Tyr) 4:1, 1% DMSO, 8.0 μM ATP and 0.1 μCi [γ^33 P] ATP. The activity is assayed in the presence or absence of inhibitors, by measuring the incorporation of ^33P from [γ^33P] ATP into the poly(Glu, Tyr) substrate. The assay (30 μL) is carried out in 96-well plates at ambient temperature for 20 min and terminated by the addition of 20 μL of 125 mM EDTA. Subsequently, 40 μL of the reaction mixture is transferred onto Immobilon-PVDF membrane (Millipore, Bedford, Mass., USA) previously soaked for 5 min with methanol, rinsed with water, then soaked for 5 min with 0.5% H3PO4 and mounted on vacuum manifold with disconnected vacuum source. After spotting all samples, vacuum is connected and each well rinsed with 200 μL 0.5% H3PO4. Membranes are removed and washed 4× on a shaker with 1.0% H3PO4, once with ethanol. Membranes are counted after drying at ambient temperature, mounting in Packard TopCount 96-well frame, and addition of 10 μL/well of Microscint™ (Packard). IC50 values are calculated by linear regression analysis of the percentage inhibition of each compound in duplicate, at four concentrations (usually 0.01, 0.1, 1 and 10 μM). One unit of protein kinase activity is defined as 1 nmole of ^33P transferred from [γ^33P] ATP to the substrate protein per minute per mg of protein at 37° C. […]

SMILES	IC50
c1ccc(-c2cnc(Nc3ccc(OCCN4CCCC4)cc3)s2)cc1 [Example 1, (5-Phenyl-thiazol-2-yl)-[4-(2-pyrrolidin-1-yl-ethoxy)-phenyl]-amine]	41 nM
COc1ccc(-c2cnc(Nc3ccc(N4CCN(C)CC4)cc3)s2)cc1 [Example 5, [5-(4-Methoxy-phenyl)-thiazol-2-yl]-[4-(4-methyl-piperazin-1-yl)-phenyl]-amine]	24 nM
Oc1ccc(-c2cnc(Nc3ccc(OCCN4CCCC4)cc3)s2)cc1 [Example 7, 4-{2-[4-(2-Pyrrolidin-1-yl-ethoxy)-phenylamino]-thiazol-5-yl}-phenol]	35 nM
Oc1ccc(Nc2ncc(-c3ccsc3)s2)cc1 [Example 12, 4-(5-Thiophen-3-yl-thiazol-2-yl-amino)-phenol]	34 nM
c1cc(-c2cnc(Nc3ccc(OCCN4CCCCC4)cc3)s2)cs1 [Example 16, [4-(2-Piperidin-1-yl-ethoxy)-phenyl]-(5-thiophen-3-yl-thiazol-2-yl)-amine]	22 nM

Continued, values first:

IC50	SMILES
82 nM	c1cc(-c2cc(Nc3ccc(OCCN4CCCC4)cc3)n[nH]2)cs1 [Example 34, [4-(2-Pyrrolidin-1-yl-ethoxy)-phenyl]-(5-thiophen-3-yl-1H-pyrazol-3-yl)-amine]
31 nM	CCN(CC)CCOc1ccc(Nc2cc(-c3ccsc3)[nH]n2)cc1 [Example 37, [4-(2-Diethylamino-ethoxy)-phenyl]-(5-thiophen-3-yl-1H-pyrazol-3-yl)-amine]
